“And” between values parts separate entries of the source, which are not always exact repeats. Equal entries are not always repeated. Marks after values point to notes of the source that are not given here.
Assays:
[1] = tested on: patient-derived xenograft (AT052C); experiment: Patient-derived xenograft from vemurafenib-refractory BRAFV600E melanoma; assay type: in vivo, mice; details: 100 mg/kg BID, 28 days
Text: Tumor fragments were harvested from host animals and implanted into immune-deficient mice.

[2] = target: CDK1/cyclinB (Homo sapiens, UniProt P06493); experiment: Kinase counter-screen, Ki; assay type: biochemical; details: apparent Ki
Sequence of CDK1/cyclinB (P06493 whole entry, species assumed): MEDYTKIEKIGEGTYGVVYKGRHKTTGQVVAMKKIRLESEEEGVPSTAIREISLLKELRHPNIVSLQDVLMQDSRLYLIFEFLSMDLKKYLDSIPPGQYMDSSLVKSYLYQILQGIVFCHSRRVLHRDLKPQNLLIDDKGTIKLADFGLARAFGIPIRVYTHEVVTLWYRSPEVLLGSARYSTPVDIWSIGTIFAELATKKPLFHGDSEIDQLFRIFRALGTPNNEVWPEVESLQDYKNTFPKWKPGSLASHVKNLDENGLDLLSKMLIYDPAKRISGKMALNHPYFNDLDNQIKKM
Sequence of CDK1/cyclinB (P14635 whole entry partner, species assumed): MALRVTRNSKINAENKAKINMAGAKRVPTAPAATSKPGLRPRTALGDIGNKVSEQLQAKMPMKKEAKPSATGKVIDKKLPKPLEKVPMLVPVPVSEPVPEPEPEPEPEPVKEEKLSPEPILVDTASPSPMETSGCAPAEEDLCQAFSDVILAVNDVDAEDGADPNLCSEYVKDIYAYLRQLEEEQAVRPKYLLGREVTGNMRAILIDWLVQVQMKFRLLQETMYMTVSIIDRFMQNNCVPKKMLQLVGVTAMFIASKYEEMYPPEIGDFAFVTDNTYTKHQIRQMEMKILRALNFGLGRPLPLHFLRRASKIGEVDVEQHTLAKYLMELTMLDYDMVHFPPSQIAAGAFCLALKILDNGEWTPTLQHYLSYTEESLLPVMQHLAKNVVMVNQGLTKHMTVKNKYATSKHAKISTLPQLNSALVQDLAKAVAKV
Text: (§1) The ATP concentrations were approximately equal to the Km in all assays.

[3] = tested on: advanced solid tumors; experiment: Phase I study: antitumor response (RECIST v1.1, 18F-FDG-PET); assay type: in vivo, human
Procedure: For measurement of antitumor response, tumor measurements based on physical examination occurred at baseline and on the first day of each treatment cycle. CT and other assessments were made every 2 to 3 cycles. Findings were assessed in accordance with RECIST v1.1: CR was defined as disappearance of all target lesions; PR was defined as a ≥30% decrease in the sum of the longest diameters of target lesions, taking baseline measurements as reference; stable disease was defined as being of neither sufficient shrinkage to qualify for PR nor sufficient increase to qualify for progressive disease, taking as reference the baseline measurement.

[4] = Phase I dose-escalation study: safety, DLT, MTD, RP2D; details: in vivo
Text: Patients aged ≥18 years were eligible for participation if they had noncurable, histologically confirmed metastatic or advanced stage malignant tumors; an ECOG performance status of 0 or 1; adequate renal, hepatic, bone marrow, and cardiac function; and a life expectancy ≥3 months. Patients may have received up to 2 prior lines of chemotherapy for their metastatic disease. Exclusion criteria were known uncontrolled brain metastases; gastrointestinal conditions which could impair absorption of study medication; history or current evidence/risk of retinal vein occlusion or central serous retinopathy; and concurrent therapy with drugs known to be strong inhibitors of CYP1A2, CYP2D6, and CYP3A4 or strong inducers of CYP3A4. All participants provided informed consent prior to initiation of any study procedures.
The present invention presents data from an open-label, multicenter phase I study to assess the safety, pharmacokinetics, and pharmacodynamics of escalating doses of BVD-523 in patients with advanced malignancies.
Patients received BID oral doses until disease progression, unacceptable toxicity, or a clinical observation satisfying another withdrawal criterion. Dose escalations occurred in up to 100% increments in single-patient cohorts until 1 patient experienced a ≥Grade 2 toxicity (excluding alopecia or diarrhea). Cohorts were then expanded to at least 3 patients each and subsequent dose-escalation increments were reduced from up to 100% to a maximum of 50%. When at least 1 patient in a 3-patient cohort experienced a DLT, up to 3 additional patients were treated at this dose level. When more than 1 DLT occurred in ≤6 patients, this dose level was defined as the nontolerated dose and dose escalation was stopped. Intrapatient dose escalation was allowed, provided the patients receiving the highest current dose had been observed for at least 3 weeks and dose-limiting side effects were reported in fewer than 2 of 6 patients assigned to a given dose. Patients experiencing DLTs or unacceptable toxicity had their treatment interrupted until the toxicity returned to ≤Grade 1.
The RP2D could be as high as the MTD and was determined in discussion with the clinical investigators, the medical monitor, and the sponsor. Observations related to pharmacokinetics, pharmacodynamics, and any cumulative toxicity observed after multiple cycles were included in the rationale supporting the RP2D.
The severity of AEs were graded according to the National Cancer Institute Common Terminology Criteria for Adverse Events, Grading Scale, version 4.
Safety evaluations were conducted at baseline, on Days 8, 15, 22, 29, 36, and 43, and, in patients who continued treatment, every 3 weeks or if clinically indicated thereafter. Each evaluation included a physical examination and clinical laboratory studies. Electrocardiograms were repeated if clinically significant and at the discretion of the investigator. The investigators made judgments regarding whether or not AEs were related to study drug and followed up until resolution or stabilization, or the AE was judged to be no longer clinically significant.

[5] = target: CDK5/p35 (Homo sapiens, UniProt Q00535); experiment: Kinase counter-screen, Ki; assay type: biochemical; details: apparent Ki
Sequence of CDK5/p35 (Q00535 whole entry, species assumed): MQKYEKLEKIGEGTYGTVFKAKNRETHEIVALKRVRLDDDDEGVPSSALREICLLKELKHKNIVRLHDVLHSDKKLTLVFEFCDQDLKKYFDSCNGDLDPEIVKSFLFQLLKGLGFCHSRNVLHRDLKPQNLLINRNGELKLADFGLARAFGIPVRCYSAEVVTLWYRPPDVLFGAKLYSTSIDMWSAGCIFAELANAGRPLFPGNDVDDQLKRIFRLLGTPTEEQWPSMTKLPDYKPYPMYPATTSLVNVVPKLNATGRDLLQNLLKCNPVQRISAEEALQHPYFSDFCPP
Sequence of CDK5/p35 (Q15078 whole entry partner, species assumed): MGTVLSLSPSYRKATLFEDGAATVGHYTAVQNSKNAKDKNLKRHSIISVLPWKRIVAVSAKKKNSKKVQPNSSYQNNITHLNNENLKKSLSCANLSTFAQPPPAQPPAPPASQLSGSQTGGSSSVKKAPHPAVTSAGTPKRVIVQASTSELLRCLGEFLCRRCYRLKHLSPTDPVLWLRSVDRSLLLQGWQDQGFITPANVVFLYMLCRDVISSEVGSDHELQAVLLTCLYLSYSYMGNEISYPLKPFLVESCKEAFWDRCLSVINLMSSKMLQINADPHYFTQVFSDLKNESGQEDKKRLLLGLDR
Text: as §1

[6] = tested on: ERK1/2 phosphorylation in Colo205 xenografts; experiment: pERK1/2 in Colo205 xenograft tumors (ITIS mass spectrometry, IHC); assay type: in vivo, mice; details: single 100 mg/kg oral dose
Procedure: For measurement of ERK1/2 Isotope-Tagged Internal Standard (ITIS) Mass Spectrometry in Colo205 Xenografts, frozen tumors were lysed in 10 volumes of ice cold lysis buffer (10 mM TRIS-HCl, pH 8.0, 10 mM MgCl2, 1% (v/v) Triton X-100, Complete™ Protease Inhibitor Cocktail [Roche, cat. No. 1836170], Phosphatase Inhibitor Cocktail I [Sigma, cat. No. P-2850], Phosphatase Inhibitor Cocktail II [Sigma cat. No. 5726], and benzonase [Novagen cat. No. 70664]). Lysates were clarified by centrifugation (100,000×g for 60 minutes at 4° C.) and the supernatants adjusted to 2 mg/mL with lysis buffer. ERK1 was immunoprecipitated using agarose-coupled and pan-anti-ERK1 (Santa Cruz Biotechnology cat. No. sc-93ac) antibodies. […]
For ITIS analysis, digested samples were spiked with heavy-atom labeled peptide standards and fractional phosphorylation was quantified by coupled liquid chromatography-tandem mass spectrometry (MS). […]
For analysis of pERK IHC in Colo205 xenografts, xenograft tumors were processed overnight in 70% through 100% graded ethanols, cleared in two changes of xylene, infiltrated with paraffin, and embedded into paraffin blocks. […] A single section from each animal and dose group was probed with anti-phospho p42/p44 MAPK antibody (pERK [1:100], CST; Cat no. 9101; Lot no. 16), counterstained with hematoxylin, and then analyzed microscopically using a Zeiss Axioplan 2 microscope. […]

[7] = target: ERK1 (Homo sapiens, UniProt P27361); experiment: biochemical
Sequence of ERK1 (P27361 whole entry): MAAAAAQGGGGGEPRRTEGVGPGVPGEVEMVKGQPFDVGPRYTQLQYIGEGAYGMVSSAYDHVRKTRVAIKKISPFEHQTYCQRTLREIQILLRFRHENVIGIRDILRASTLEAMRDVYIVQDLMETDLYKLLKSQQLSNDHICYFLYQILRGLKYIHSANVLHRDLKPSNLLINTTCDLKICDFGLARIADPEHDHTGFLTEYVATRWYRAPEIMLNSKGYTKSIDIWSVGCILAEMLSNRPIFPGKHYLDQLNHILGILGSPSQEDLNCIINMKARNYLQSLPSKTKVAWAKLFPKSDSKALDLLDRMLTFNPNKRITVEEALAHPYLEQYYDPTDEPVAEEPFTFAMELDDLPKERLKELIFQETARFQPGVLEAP
Procedure: The reaction was initiated by the addition of 65 μM of ATP. Decreased absorbance rate (340 nm) was monitored and the IC50 was determined as a function of inhibitor concentration.

[8] = tested on: Colo205 xenografts; experiment: BVD-523 activity in Colo205 xenografts
[9] = target: RSK3 (Homo sapiens, UniProt Q15349); experiment: Kinase counter-screen, Ki; assay type: biochemical
Sequence of RSK3 (Q15349 whole entry, species assumed): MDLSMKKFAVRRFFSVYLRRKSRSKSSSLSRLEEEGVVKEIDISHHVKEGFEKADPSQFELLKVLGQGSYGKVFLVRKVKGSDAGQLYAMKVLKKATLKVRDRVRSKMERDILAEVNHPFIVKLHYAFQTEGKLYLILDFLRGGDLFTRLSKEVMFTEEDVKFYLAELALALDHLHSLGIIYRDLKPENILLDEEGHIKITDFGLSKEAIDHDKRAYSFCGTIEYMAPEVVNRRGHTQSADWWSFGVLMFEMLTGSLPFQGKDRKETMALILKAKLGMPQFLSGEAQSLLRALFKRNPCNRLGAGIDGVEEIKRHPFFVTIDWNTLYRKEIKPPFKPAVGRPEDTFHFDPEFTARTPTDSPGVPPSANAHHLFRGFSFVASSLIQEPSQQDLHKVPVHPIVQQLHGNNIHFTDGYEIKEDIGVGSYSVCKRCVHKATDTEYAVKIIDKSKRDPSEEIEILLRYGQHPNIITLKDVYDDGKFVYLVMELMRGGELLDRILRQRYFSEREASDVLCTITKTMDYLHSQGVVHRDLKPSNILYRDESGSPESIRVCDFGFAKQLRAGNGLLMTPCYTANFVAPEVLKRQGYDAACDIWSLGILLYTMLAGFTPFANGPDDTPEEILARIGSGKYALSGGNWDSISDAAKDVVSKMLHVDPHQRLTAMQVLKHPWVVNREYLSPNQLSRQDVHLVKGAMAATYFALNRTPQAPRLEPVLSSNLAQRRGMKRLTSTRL
Text: as §1

[10] = target: ROCKII (Homo sapiens, UniProt O75116); experiment: Kinase counter-screen, Ki; assay type: biochemical; details: apparent Ki
Sequence of ROCKII (O75116 whole entry, species assumed): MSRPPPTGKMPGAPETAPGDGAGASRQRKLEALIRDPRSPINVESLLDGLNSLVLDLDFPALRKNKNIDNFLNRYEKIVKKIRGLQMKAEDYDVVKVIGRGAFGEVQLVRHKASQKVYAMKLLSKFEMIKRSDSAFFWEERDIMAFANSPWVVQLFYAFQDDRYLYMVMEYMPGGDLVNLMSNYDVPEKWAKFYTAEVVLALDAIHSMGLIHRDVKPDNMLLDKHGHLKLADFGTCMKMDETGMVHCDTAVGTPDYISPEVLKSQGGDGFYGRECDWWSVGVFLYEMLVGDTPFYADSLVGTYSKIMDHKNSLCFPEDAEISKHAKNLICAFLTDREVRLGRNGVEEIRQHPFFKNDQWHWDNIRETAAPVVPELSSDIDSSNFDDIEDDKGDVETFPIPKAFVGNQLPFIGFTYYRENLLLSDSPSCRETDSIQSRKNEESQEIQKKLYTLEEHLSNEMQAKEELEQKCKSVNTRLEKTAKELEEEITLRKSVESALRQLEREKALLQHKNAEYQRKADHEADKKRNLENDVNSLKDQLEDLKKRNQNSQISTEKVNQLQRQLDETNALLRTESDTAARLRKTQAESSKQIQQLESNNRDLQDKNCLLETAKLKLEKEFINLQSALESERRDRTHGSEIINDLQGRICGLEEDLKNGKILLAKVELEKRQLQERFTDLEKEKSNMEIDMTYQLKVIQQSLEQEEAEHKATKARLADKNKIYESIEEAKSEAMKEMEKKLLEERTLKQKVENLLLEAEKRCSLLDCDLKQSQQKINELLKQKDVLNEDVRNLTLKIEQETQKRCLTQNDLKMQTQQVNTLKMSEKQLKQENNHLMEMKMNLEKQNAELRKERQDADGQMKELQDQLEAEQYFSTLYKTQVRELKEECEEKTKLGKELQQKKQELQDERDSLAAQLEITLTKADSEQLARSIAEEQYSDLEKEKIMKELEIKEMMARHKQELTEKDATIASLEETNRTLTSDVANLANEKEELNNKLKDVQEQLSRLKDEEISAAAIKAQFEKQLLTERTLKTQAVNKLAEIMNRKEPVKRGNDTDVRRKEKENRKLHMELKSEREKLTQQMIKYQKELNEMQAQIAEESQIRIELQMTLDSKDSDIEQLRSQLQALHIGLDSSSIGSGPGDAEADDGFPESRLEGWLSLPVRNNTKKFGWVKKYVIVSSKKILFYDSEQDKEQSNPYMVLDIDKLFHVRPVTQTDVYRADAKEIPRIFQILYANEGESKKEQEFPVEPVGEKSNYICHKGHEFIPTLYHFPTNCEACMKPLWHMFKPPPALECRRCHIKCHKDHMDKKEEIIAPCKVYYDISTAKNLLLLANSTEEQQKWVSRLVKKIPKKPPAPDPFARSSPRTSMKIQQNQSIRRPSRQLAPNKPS
Text: as §1

For CC(C)Nc1cc(-c2c[nH]c(C(=O)N[C@H](CO)c3cccc(Cl)c3)c2)c(Cl)cn1 [BVD-523], the TGI [1] was 78%, the Ki [2] was 70 nM and the “durable partial response, duration of dosing” value ([3]; 600 mg BID, progressed on prior vemurafenib and dabrafenib/trametinib) was > 300 days. For the same compound, the partial response ([3]; 25 evaluable patients, all melanoma with BRAF^V600 mutations) was 3 patients, the “progressive disease at first evaluation” value ([3]; in vivo) was 4 patients and the stable disease ([3]; in vivo) was 18 patients. For the same compound, the “stable disease for more than 3 months (additional patients)” value ([3]; in vivo) was 6 patients, the “stable disease for more than 6 months” value ([3]; in vivo) was 6 patients and the “reduction in the sum of target lesions from baseline” value ([3]; other partial responders) was 47.0% and 33.6%. For the same compound, the “reduction in the sum of target lesions from baseline” value ([3]; partial responder at 450 mg BID) was ~70%, the “duration of partial response” value ([3]; patient intolerant to other BRAF/MEK inhibitors, ongoing by data cutoff) was ≥ 313 days and the “duration of partial response” value ([3]; patient refractory to prior BRAF/MEK inhibitors, ongoing) was ≥ 294 days. For the same compound, the “Anemia, Any grade” value ([4]; human) was 5 (19) n (%), the “Anemia, Grade 1 or 2” value ([4]; human) was 3 (11) n (%) and the “Anemia, Grade 3” value ([4]; human) was 2^ (7) n (%). For the same compound, the “Anorexia, Any grade” value ([4]; human) was 6 (22) n (%), the “Anorexia, Grade 1 or 2” value ([4]; human) was 6 (22) n (%) and the “Anorexia, Grade 3” value ([4]; human) was 0 n (%). The “Blurry/dimmed vision, Any grade” value ([4]; human) was 3 (11) n (%), the “Blurry/dimmed vision, Grade 1 or 2” value ([4]; human) was 3 (11) n (%) and the “Blurry/dimmed vision, Grade 3” value ([4]; human) was 0 n (%). For the same compound, the “Constipation, Any grade” value ([4]; human) was 3 (11) n (%), the “Constipation, Grade 1 or 2” value ([4]; human) was 3 (11) n (%) and the “Constipation, Grade 3” value ([4]; human) was 0 n (%). For the same compound, the “Dehydration, Any grade” value ([4]; human) was 5 (19) n (%), the “Dehydration, Grade 1 or 2” value ([4]; human) was 3 (11) n (%) and the “Dehydration, Grade 3” value ([4]; human) was 2^ (7) n (%). The “Diarrhea, Any grade” value ([4]; human) was 16 (59) n (%), the “Diarrhea, Grade 1 or 2” value ([4]; human) was 12 (44) n (%) and the “Diarrhea, Grade 3” value ([4]; human) was 4^ (15) n (%). The “Fatigue, Any grade” value ([4]; human) was 17 (63) n (%), the “Fatigue, Grade 1 or 2” value ([4]; human) was 16 (59) n (%) and the “Fatigue, Grade 3” value ([4]; human) was 1^ (4) n (%). For the same compound, the “Fever, Any grade” value ([4]; human) was 3 (11) n (%), the “Fever, Grade 1 or 2” value ([4]; human) was 3 (11) n (%) and the “Fever, Grade 3” value ([4]; human) was 0 n (%). The “Grade 3 treatment-related diarrhea” value ([4]; human) was 15%, the “Grade 3 treatment-related increased liver function tests” value ([4]; human) was 11% and the “Increased LFTs (ALT and AST), Any grade” value ([4]; human) was 4 (14) n (%). The “Increased LFTs (ALT and AST), Grade 1 or 2” value ([4]; human) was 1 (4) n (%), the “Increased LFTs (ALT and AST), Grade 3” value ([4]; human) was 3^ (11) n (%) and the “Increased creatinine, Any grade” value ([4]; human) was 5 (19) n (%). For the same compound, the “Increased creatinine, Grade 1 or 2” value ([4]; human) was 4 (15) n (%), the “Increased creatinine, Grade 3” value ([4]; human) was 1^ (4) n (%) and the MTD ([4]; human) was 600 mg BID. For the same compound, the “Nausea, Any grade” value ([4]; human) was 14 (52) n (%), the “Nausea, Grade 1 or 2” value ([4]; human) was 14 (52) n (%) and the “Nausea, Grade 3” value ([4]; human) was 0 n (%). For the same compound, the “Peripheral edema, Any grade” value ([4]; human) was 4 (15) n (%), the “Peripheral edema, Grade 1 or 2” value ([4]; human) was 4 (15) n (%) and the “Peripheral edema, Grade 3” value ([4]; human) was 0 n (%). The “Pruritus, Any grade” value ([4]; human) was 6 (22) n (%), the “Pruritus, Grade 1 or 2” value ([4]; human) was 6 (22) n (%) and the “Pruritus, Grade 3” value ([4]; human) was 0 n (%). The RP2D ([4]; human) was 600 mg BID, the “Rash, Any grade” value ([4]; human) was 20 (74) n (%) and the “Rash, Grade 1 or 2” value ([4]; human) was 18 (67) n (%). For the same compound, the “Rash, Grade 3” value ([4]; human) was 2^b (7) n (%), the “Vomiting, Any grade” value ([4]; human) was 8 (30) n (%) and the “Vomiting, Grade 1 or 2” value ([4]; human) was 7 (26) n (%). The “Vomiting, Grade 3” value ([4]; human) was 1^ (4) n (%), the “dose reductions resulting from AEs” value ([4]; human) was 3 patients and the “patients with Grade 4 or 5 AEs possibly or definitely related” value ([4]; human) was “^aNo patients experienced Grade 4 or 5 AEs that were possibly or definitely related to BVD-523 treatment”. For the same compound, the “patients with treatment-related AEs of any grade” value ([4]; human) was 26 of 27, the “patients with treatment-related Grade 3 events” value ([4]; human) was 13 of 27 and the “related central serous retinopathy events” value ([4]; human) was “^cOne Grade 1 event of related central serous retinopathy”. For the same compound, the “total serious AEs (SAEs)” value ([4]; human) was 28, the treatment-related diarrhea ([4]; human) was 52% and the treatment-related fatigue ([4]; human) was 59%. The treatment-related nausea ([4]; human) was 52%, the “treatment-related rash (predominately acneiform)” value ([4]; human) was 70% and the “patients with serious AEs (SAEs)” value [4] was “Fourteen”. The Ki [5] was 90 nM, the “time of maximal ERK1/2 phosphorylation post-dose” value [6] was 8 h and the “time of return of pERK1/2 to pre-dose levels” value [6] was ≤ 24 hours. The Ki ([7]; Ki against recombinant ERK1, tight-binding) was < 0.3 nM, the Ki ([7]; Ki, ERK1) was ≤ 0.3 nM and the T/C ([8]; 25 mg/kg BID) was 25.2%. The “mean tumor regression T/Ti” value ([8]; 50 mg/kg BID) was −48.2%, the “mean tumor regression T/Ti” value ([8]; 75 mg/kg BID) was −77.2% and the “mean tumor regression T/Ti” value ([8]; 100 mg/kg BID) was −92.3%. For the same compound, the Ki [9] was 450 nM and the Ki [10] was 270 nM.

Source: patent US20210038587A1, “METHODS AND COMPOSITIONS FOR TREATING NON-ERK MAPK PATHWAY INHIBITOR-RESISTANT CANCERS” (BIOMED VALLEY DISCOVERIES, INC., priority 2013, published 2021)
